Measured values taken from patent US7943619B2, “Isoxazolo-pyridazine derivatives” (priority 2007, dated 2011).

What follows are compounds tested against human GABA A receptor α5β3γ2 (α5 subunit) (Homo sapiens, UniProt P18507+P31644) (assay: biochemical). Settings: competition for [3H]flumazenil binding, HEK293 cells transiently expressing human receptors; means of two determinations; read-out: hKi.
Format: binding
Procedure: The affinity of compounds at GABA A receptor subtypes was measured by competition for [3H]flumazenil (85 Ci/mmol; Roche) binding to HEK293 cells expressing rat (stably transfected) or human (transiently transfected) receptors of composition α1β3γ2, α2β3γ2, α3β3γ2 and α5β3γ2.
Cell pellets were suspended in Krebs-tris buffer (4.8 mM KCl, 1.2 mM CaCl2, 1.2 mM MgCl2, 120 mM NaCl, 15 mM Tris; pH 7.5; binding assay buffer), homogenized by polytron for ca. 20 sec on ice and centrifuged for 60 min at 4° C. (50000 g; Sorvall, rotor: SM24=20000 rpm). The cell pellets were resuspended in Krebs-tris buffer and homogenized by polytron for ca. 15 sec on ice. Protein was measured (Bradford method, Bio-Rad) and aliquots of 1 mL were prepared and stored at −80° C.
Assays were incubated to equilibrium for 1 hour at 4° C. and harvested onto GF/C uni-filters (Packard) by filtration using a Packard harvester and washing with ice-cold wash buffer (50 mM Tris; pH 7.5). After drying, filter-retained radioactivity was detected by liquid scintillation counting. Ki values were calculated using Excel-Fit (Microsoft) and are the means of two determinations.

Chain of human GABA A receptor α5β3γ2 (α5 subunit) (P31644 32-462): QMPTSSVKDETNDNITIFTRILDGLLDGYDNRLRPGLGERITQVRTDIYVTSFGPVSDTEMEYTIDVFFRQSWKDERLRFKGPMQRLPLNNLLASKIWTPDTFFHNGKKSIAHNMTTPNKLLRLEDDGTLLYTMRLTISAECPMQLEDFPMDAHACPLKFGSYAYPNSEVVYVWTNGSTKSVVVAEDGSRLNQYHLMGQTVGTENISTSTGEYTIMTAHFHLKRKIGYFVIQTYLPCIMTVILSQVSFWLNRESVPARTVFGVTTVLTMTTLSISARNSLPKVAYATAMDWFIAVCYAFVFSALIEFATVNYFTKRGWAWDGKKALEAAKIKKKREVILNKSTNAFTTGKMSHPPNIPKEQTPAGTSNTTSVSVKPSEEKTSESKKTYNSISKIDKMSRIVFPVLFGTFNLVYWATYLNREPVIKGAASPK
Chain of human GABA A receptor α5β3γ2 (α5 subunit) (P28472 26-473 partner): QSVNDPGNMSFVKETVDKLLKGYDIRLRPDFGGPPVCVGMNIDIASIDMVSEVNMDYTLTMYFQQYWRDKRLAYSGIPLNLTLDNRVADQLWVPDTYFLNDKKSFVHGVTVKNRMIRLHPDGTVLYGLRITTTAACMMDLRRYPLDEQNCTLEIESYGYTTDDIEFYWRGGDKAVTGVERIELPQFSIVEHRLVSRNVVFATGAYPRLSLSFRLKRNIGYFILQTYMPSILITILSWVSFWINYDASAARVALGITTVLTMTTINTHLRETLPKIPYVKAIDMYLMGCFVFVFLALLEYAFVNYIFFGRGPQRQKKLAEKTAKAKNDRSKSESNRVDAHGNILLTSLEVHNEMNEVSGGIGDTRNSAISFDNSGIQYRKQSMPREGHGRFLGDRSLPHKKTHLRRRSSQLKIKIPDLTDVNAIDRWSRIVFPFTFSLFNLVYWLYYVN
Chain of human GABA A receptor α5β3γ2 (α5 subunit) (P18507 40-475): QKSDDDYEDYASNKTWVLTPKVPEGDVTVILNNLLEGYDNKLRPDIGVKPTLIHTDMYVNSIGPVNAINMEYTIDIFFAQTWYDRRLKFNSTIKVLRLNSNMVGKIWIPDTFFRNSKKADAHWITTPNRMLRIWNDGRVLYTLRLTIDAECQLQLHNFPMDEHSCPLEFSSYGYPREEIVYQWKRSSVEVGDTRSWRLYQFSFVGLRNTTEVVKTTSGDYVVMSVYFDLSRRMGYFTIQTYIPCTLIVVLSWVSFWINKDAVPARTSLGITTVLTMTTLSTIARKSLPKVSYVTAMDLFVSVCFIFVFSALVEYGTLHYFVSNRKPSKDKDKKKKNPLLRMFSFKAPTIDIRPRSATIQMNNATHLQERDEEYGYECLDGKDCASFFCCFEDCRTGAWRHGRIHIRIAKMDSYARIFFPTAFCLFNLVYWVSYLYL

Ki | Structure (SMILES)
9 nM | CNC(=O)c1ccc(OCc2c(-c3ccncc3)noc2C)nn1 [Example 108, 6-(5-Methyl-3-pyridin-4-yl-isoxazol-4-ylmethoxy)-pyridazine-3-carboxylic acid methylamide]
2.2 nM | CCOC(=O)c1cc(C)c(OCc2c(-c3ccccc3)noc2C)nn1 [Example 40, 5-Methyl-6-(5-methyl-3-phenyl-isoxazol-4-ylmethoxy)-pyridazine-3-carboxylic acid ethyl ester]
14.8 nM | Cc1onc(-c2ccncn2)c1COc1ccc(C(=O)NC(C)(C)CO)nn1 [Example 115, 6-(5-Methyl-3-pyrimidin-4-yl-isoxazol-4-ylmethoxy)-pyridazine-3-carboxylic acid (2-hydroxy-1,1-dimethyl-ethyl)-amide]
6.6 nM | Cc1onc(-c2ccccc2)c1COc1ccc2nncn2n1 [Example 86, 6-(5-Methyl-3-phenyl-isoxazol-4-ylmethoxy)-[1,2,4]triazolo[4,3-b]pyridazine]
0.9 nM | CNC(=O)c1ccc(OCc2c(-c3ccccn3)noc2C)nn1 [Example 102, 6-(5-Methyl-3-pyridin-2-yl-isoxazol-4-ylmethoxy)-pyridazine-3-carboxylic acid methylamide]
3.5 nM | Cc1onc(-c2ccc(F)cc2)c1COc1ccc(C(=O)NCC(F)(F)F)nn1 [Example 60, 6-[3-(4-Fluoro-phenyl)-5-methyl-isoxazol-4-ylmethoxy]-pyridazine-3-carboxylic acid (2,2,2-trifluoro-ethyl)-amide]
1.9 nM | CCOC(=O)c1nnc(OCc2c(-c3ccccc3)noc2C)cc1C [Example 42, 4-Methyl-6-(5-methyl-3-phenyl-isoxazol-4-ylmethoxy)-pyridazine-3-carboxylic acid ethyl ester]
7.5 nM | Cc1onc(-c2ccc(F)cc2)c1COc1ccc2nncn2n1 [Example 91, 6-[3-(4-Fluoro-phenyl)-5-methyl-isoxazol-4-ylmethoxy]-[1,2,4]triazolo[4,3-b]pyridazine]
27.8 nM | Cc1onc(-c2ccccn2)c1COc1ccc(C(=O)N2CCSCC2)nn1 [Example 104, [6-(5-Methyl-3-pyridin-2-yl-isoxazol-4-ylmethoxy)-pyridazin-3-yl]-thiomorpholin-4-yl-methanone]
1.4 nM | Cc1onc(-c2ccccn2)c1COc1ccc(C(=O)NCCO)nn1 [Example 101, 6-(5-Methyl-3-pyridin-2-yl-isoxazol-4-ylmethoxy)-pyridazine-3-carboxylic acid (2-hydroxy-ethyl)-amide]
3.5 nM | Cc1onc(-c2ccccc2)c1COc1ccc(C(=O)NC2CC2)nn1 [Example 8, 6-(5-Methyl-3-phenyl-isoxazol-4-ylmethoxy)-pyridazine-3-carboxylic acid cyclopropylamide]
7.7 nM | Cc1onc(-c2ccccc2)c1COc1ccc(C(=O)NC(C)(C)CO)nn1 [Example 13, 6-(5-Methyl-3-phenyl-isoxazol-4-ylmethoxy)-pyridazine-3-carboxylic acid (2-hydroxy-1,1-dimethyl-ethyl)-amide]
1.6 nM | Cc1onc(-c2ccccn2)c1COc1ccc(C(=O)NC2CC2)nn1 [Example 97, 6-(5-Methyl-3-pyridin-2-yl-isoxazol-4-ylmethoxy)-pyridazine-3-carboxylic acid cyclopropylamide]
4.8 nM | Cc1onc(-c2ccccc2)c1COc1ccc(C(=O)NC2CCOCC2)nn1 [Example 9, 6-(5-Methyl-3-phenyl-isoxazol-4-ylmethoxy)-pyridazine-3-carboxylic acid (tetrahydro-pyran-4-yl)-amide]
3.9 nM | CC(=O)Nc1ccc(OCc2c(-c3ccccc3)noc2C)nn1 [Example 17, N-[6-(5-Methyl-3-phenyl-isoxazol-4-ylmethoxy)-pyridazin-3-yl]-acetamide]
4.6 nM | Cc1onc(-c2ccc(F)cc2)c1COc1ccc(Cl)nn1 [Example 57, 3-Chloro-6-[3-(4-fluoro-phenyl)-5-methyl-isoxazol-4-ylmethoxy]-pyridazine]
